According to patent US6358885B1, “Substituted phenylheterocyclic herbicides” (Mississippi State University, priority 1992, dated 2002):

What was measured:
Assay in all cases: Test B preemergence/postemergence greenhouse plant response rating 0 to 10
Conditions in all cases: 0 to 10 scale
lambsquarters = assay type: in vivo, Chenopodium album
Outline: (§1)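 Test chemicals were sprayed onto freshly planted seed and, concurrently, onto young plants between the one and four leaf stage. After a twelve- to sixteen-day greenhouse period, each species was visually compared with untreated controls.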

bedstraw = assay type: in vivo, Galium aparine
Outline: as §1

wheat = assay type: in vivo, Triticum aestivum
Outline: as §1

rice = assay type: in vivo, Oryza sativa
Outline: as §1

wild oat = assay type: in vivo, Avena fatua
Outline: as §1

giant foxtail = assay type: in vivo, Setaria faberii
Outline: as §1

chickweed = assay type: in vivo, Stellaria media
Outline: as §1

velvetleaf = assay type: in vivo, Abutilon theophrasti
Outline: as §1

purple nutsedge = assay type: in vivo, Cyperus rotundus
Outline: as §1

sorghum = assay type: in vivo, Sorghum bicolor
Outline: as §1

crabgrass = assay type: in vivo, Digitaria spp.
Outline: as §1

barnyardgrass = assay type: in vivo, Echinochloa crus-galli
Outline: as §1

rape = assay type: in vivo, Brassica napus
Outline: as §1

corn = assay type: in vivo, Zea mays
Outline: as §1

morningglory = assay type: in vivo, Ipomoea hederacea
Outline: as §1

blackgrass = assay type: in vivo, Alopecurus myosuroides
Outline: as §1

cocklebur = assay type: in vivo, Xanthium pensylvanicum
Outline: as §1

cheatgrass = assay type: in vivo, Bromus secalinus
Outline: as §1

sugar beet = assay type: in vivo, Beta vulgaris
Outline: as §1

soybean = assay type: in vivo, Glycine max
Outline: as §1

cotton = assay type: in vivo, Gossypium hirsutum
Outline: as §1

wild buckwheat = assay type: in vivo, Polygonum convolvulus
Outline: as §1

barley = assay type: in vivo, Hordeum vulgare
Outline: as §1

## O=C1COc2cc(F)c(-c3nn4c(c3Cl)CCCC4)cc2N1 [Compound 51]
lambsquarters; POSTEMERGENCE, Rate 50 g/ha
  Plant response rating, Lambsquarter: 10
lambsquarters; PREEMERGENCE, Rate 50 g/ha
  Plant response rating, Lambsquarter: 10
lambsquarters; Rate 200 g/ha, POSTEMERGENCE
  Plant response rating, Lambsquarter: 10
lambsquarters; Rate 200 g/ha, PREEMERGENCE
  Plant response rating, Lambsquarter: 10
bedstraw; POSTEMERGENCE, Rate 50 g/ha
  Plant response rating, Bedstraw: 10
bedstraw; POSTEMERGENCE, Rate 200 g/ha
  Plant response rating, Bedstraw: 10
bedstraw; PREEMERGENCE, Rate 50 g/ha
  Plant response rating, Bedstraw: 5
bedstraw; Rate 200 g/ha, PREEMERGENCE
  Plant response rating, Bedstraw: 10
wheat; POSTEMERGENCE, Rate 50 g/ha
  Plant response rating, Wheat: 3
wheat; PREEMERGENCE, Rate 50 g/ha
  Plant response rating, Wheat: 0
wheat; Rate 200 g/ha, POSTEMERGENCE
  Plant response rating, Wheat: 4
wheat; Rate 200 g/ha, PREEMERGENCE
  Plant response rating, Wheat: 2
rice; POSTEMERGENCE, Rate 50 g/ha
  Plant response rating, Rice: 3
rice; PREEMERGENCE, Rate 50 g/ha
  Plant response rating, Rice: 0
rice; Rate 200 g/ha, POSTEMERGENCE
  Plant response rating, Rice: 5
rice; Rate 200 g/ha, PREEMERGENCE
  Plant response rating, Rice: 2
Wild oat; POSTEMERGENCE, Rate 50 g/ha
  Plant response rating, Wild oat: 2
Wild oat; PREEMERGENCE, Rate 50 g/ha
  Plant response rating, Wild oat: 0
Wild oat; Rate 200 g/ha, POSTEMERGENCE
  Plant response rating, Wild oat: 3
Giant foxtail; POSTEMERGENCE, Rate 50 g/ha
  Plant response rating, Giant foxtail: 4
Giant foxtail; PREEMERGENCE, Rate 50 g/ha
  Plant response rating, Giant foxtail: 2
Giant foxtail; Rate 200 g/ha, POSTEMERGENCE
  Plant response rating, Giant foxtail: 6
Giant foxtail; Rate 200 g/ha, PREEMERGENCE
  Plant response rating, Giant foxtail: 8
chickweed; POSTEMERGENCE, Rate 50 g/ha
  Plant response rating, Chickweed: 10
chickweed; POSTEMERGENCE, Rate 200 g/ha
  Plant response rating, Chickweed: 10
chickweed; PREEMERGENCE, Rate 50 g/ha
  Plant response rating, Chickweed: 6
chickweed; Rate 200 g/ha, PREEMERGENCE
  Plant response rating, Chickweed: 10
velvetleaf; POSTEMERGENCE, Rate 50 g/ha
  Plant response rating, Velvetleaf: 9
velvetleaf; PREEMERGENCE, Rate 50 g/ha
  Plant response rating, Velvetleaf: 10
velvetleaf; Rate 200 g/ha, POSTEMERGENCE
  Plant response rating, Velvetleaf: 10
velvetleaf; Rate 200 g/ha, PREEMERGENCE
  Plant response rating, Velvetleaf: 10
Purple nutsedge; POSTEMERGENCE, Rate 50 g/ha
  Plant response rating, Nutsedge: 3
Purple nutsedge; PREEMERGENCE, Rate 50 g/ha
  Plant response rating, Nutsedge: 0
Purple nutsedge; Rate 200 g/ha, POSTEMERGENCE
  Plant response rating, Nutsedge: 3
Purple nutsedge; Rate 200 g/ha, PREEMERGENCE
  Plant response rating, Nutsedge: 0
sorghum; POSTEMERGENCE, Rate 50 g/ha
  Plant response rating, Sorghum: 4
sorghum; PREEMERGENCE, Rate 50 g/ha
  Plant response rating, Sorghum: 0
sorghum; Rate 200 g/ha, POSTEMERGENCE
  Plant response rating, Sorghum: 6
sorghum; Rate 200 g/ha, PREEMERGENCE
  Plant response rating, Sorghum: 0
crabgrass; POSTEMERGENCE, Rate 50 g/ha
  Plant response rating, Crabgrass: 4
crabgrass; POSTEMERGENCE, Rate 200 g/ha
  Plant response rating, Crabgrass: 5
crabgrass; PREEMERGENCE, Rate 50 g/ha
  Plant response rating, Crabgrass: 2
crabgrass; Rate 200 g/ha, PREEMERGENCE
  Plant response rating, Crabgrass: 9
barnyardgrass; POSTEMERGENCE, Rate 50 g/ha
  Plant response rating, Barnyardgrass: 8
barnyardgrass; POSTEMERGENCE, Rate 200 g/ha
  Plant response rating, Barnyardgrass: 9
barnyardgrass; PREEMERGENCE, Rate 50 g/ha
  Plant response rating, Barnyardgrass: 9
barnyardgrass; Rate 200 g/ha, PREEMERGENCE
  Plant response rating, Barnyardgrass: 9
rape; POSTEMERGENCE, Rate 50 g/ha
  Plant response rating, Rape: 7
rape; PREEMERGENCE, Rate 50 g/ha
  Plant response rating, Rape: 8
rape; Rate 200 g/ha, POSTEMERGENCE
  Plant response rating, Rape: 10
rape; Rate 200 g/ha, PREEMERGENCE
  Plant response rating, Rape: 10
corn; POSTEMERGENCE, Rate 50 g/ha
  Plant response rating, Corn: 4
corn; POSTEMERGENCE, Rate 200 g/ha
  Plant response rating, Corn: 6
corn; PREEMERGENCE, Rate 50 g/ha
  Plant response rating, Corn: 0
corn; Rate 200 g/ha, PREEMERGENCE
  Plant response rating, Corn: 0
morningglory; POSTEMERGENCE, Rate 50 g/ha
  Plant response rating, Morningglory: 9
morningglory; PREEMERGENCE, Rate 50 g/ha
  Plant response rating, Morningglory: 9
morningglory; Rate 200 g/ha, POSTEMERGENCE
  Plant response rating, Morningglory: 10
morningglory; Rate 200 g/ha, PREEMERGENCE
  Plant response rating, Morningglory: 10
blackgrass; POSTEMERGENCE, Rate 50 g/ha
  Plant response rating, Blackgrass: 6
blackgrass; POSTEMERGENCE, Rate 200 g/ha
  Plant response rating, Blackgrass: 6
blackgrass; PREEMERGENCE, Rate 50 g/ha
  Plant response rating, Blackgrass: 2
blackgrass; Rate 200 g/ha, PREEMERGENCE
  Plant response rating, Blackgrass: 6
cocklebur; POSTEMERGENCE, Rate 50 g/ha
  Plant response rating, Cocklebur: 9
cocklebur; POSTEMERGENCE, Rate 200 g/ha
  Plant response rating, Cocklebur: 10
cocklebur; PREEMERGENCE, Rate 50 g/ha
  Plant response rating, Cocklebur: 2
cocklebur; Rate 200 g/ha, PREEMERGENCE
  Plant response rating, Cocklebur: 9
cheatgrass; POSTEMERGENCE, Rate 50 g/ha
  Plant response rating, Cheatgrass: 4
cheatgrass; POSTEMERGENCE, Rate 200 g/ha
  Plant response rating, Cheatgrass: 4
cheatgrass; PREEMERGENCE, Rate 50 g/ha
  Plant response rating, Cheatgrass: 3
cheatgrass; Rate 200 g/ha, PREEMERGENCE
  Plant response rating, Cheatgrass: 5
Sugar beet; POSTEMERGENCE, Rate 50 g/ha
  Plant response rating, Sugar beet: 10
Sugar beet; PREEMERGENCE, Rate 50 g/ha
  Plant response rating, Sugar beet: 10
Sugar beet; Rate 200 g/ha, POSTEMERGENCE
  Plant response rating, Sugar beet: 10
Sugar beet; Rate 200 g/ha, PREEMERGENCE
  Plant response rating, Sugar beet: 10
soybean; POSTEMERGENCE, Rate 50 g/ha
  Plant response rating, Soybean: 8
soybean; PREEMERGENCE, Rate 50 g/ha
  Plant response rating, Soybean: 1
soybean; Rate 200 g/ha, POSTEMERGENCE
  Plant response rating, Soybean: 9
soybean; Rate 200 g/ha, PREEMERGENCE
  Plant response rating, Soybean: 8
cotton; POSTEMERGENCE, Rate 50 g/ha
  Plant response rating, Cotton: 10
cotton; POSTEMERGENCE, Rate 200 g/ha
  Plant response rating, Cotton: 10
cotton; PREEMERGENCE, Rate 50 g/ha
  Plant response rating, Cotton: 1
cotton; Rate 200 g/ha, PREEMERGENCE
  Plant response rating, Cotton: 5
Wild buckwheat; POSTEMERGENCE, Rate 50 g/ha
  Plant response rating, Wild buckwheat: 10
Wild buckwheat; PREEMERGENCE, Rate 50 g/ha
  Plant response rating, Wild buckwheat: 10
Wild buckwheat; Rate 200 g/ha, POSTEMERGENCE
  Plant response rating, Wild buckwheat: 10
Wild buckwheat; Rate 200 g/ha, PREEMERGENCE
  Plant response rating, Wild buckwheat: 10
barley; POSTEMERGENCE, Rate 50 g/ha
  Plant response rating, Barley: 3
barley; POSTEMERGENCE, Rate 200 g/ha
  Plant response rating, Barley: 3
barley; PREEMERGENCE, Rate 50 g/ha
  Plant response rating, Barley: 0
barley; Rate 200 g/ha, PREEMERGENCE
  Plant response rating, Barley: 0
